Laboratory results taken from ChEMBL document CHEMBL4376831, “Enhancing the Cell Permeability of Stapled Peptides with a Cyclic Cell-Penetrating Peptide” (J Med Chem, 2019).
Where a chain is given by its changes, count along the chain named. pEC50, pIC50, pKd: −log10 of the molar value. Blank lines part the entries; values can stand above or below the compound they belong to. Activity calls are given as the source filed them. No cut-off for these calls is given here. *1 amine or outer side, *2 acyl side, *3 side chain or, on linkers, in order; H or OH if unused. Where a SMILES comes first, the peptide text is derived from it. Bridges are numbered along the chain shown (N, C = ends). Roman numbers before positions name the chains, in order. [ ]: non-standard residue; d: D form. The star is where a group is joined. X1 = O=C(O)c1cc(C(=O)*)ccc1-c1c2ccc(=O)cc-2oc2cc(O)ccc12; 2Nal = N[C@@H](Cc1ccc2ccccc2c1)C(=O)O; mXylylene = c1cc(C[*:1])cc(C[*:2])c1; Dap = NC[C@H](N)C(=O)O; AEEA = NCCOCCOCC(=O)O

Experiments:
[1] = molecular target: E3 ubiquitin-protein ligase Mdm2 (Homo sapiens, UniProt Q00987); assay: Displacement of TMR-labelled PDI from human GST tagged MDM2 (1 to 139 residues) expressed in Escherichia coli BL21 (DE3) cells preincuabted for 1 hr with TMR-labelled PDI followed by compound addition and measured after 1 hr by fluorescence polarization assay
[2] = system: HeLa; assay: Cytotoxicity against human HeLa cells incubated for 72 hrs using FAM-labeled compound by MTT assay; format: cell-based
[3] = system: HeLa; assay: Induction of cell membrane disruption in human HeLa cells incubated for 4 hrs using FAM-labeled compound by LDH assay; format: cell-based
[4] = system: SJSA-1; settings: Homo sapiens
[5] = Half life in human serum at 100 uM measured up to 24 hrs by RP-HPLC analysis; format: ADME, cell-free
[6] = molecular target: T1, Catenin beta-1 (Homo sapiens) (UniProt P35222); assay: Inhibition of beta-catenin in human HCT116 cells assessed as reduction in axin2 mRNA expression; format: cell-based
T1 sequence (whole entry): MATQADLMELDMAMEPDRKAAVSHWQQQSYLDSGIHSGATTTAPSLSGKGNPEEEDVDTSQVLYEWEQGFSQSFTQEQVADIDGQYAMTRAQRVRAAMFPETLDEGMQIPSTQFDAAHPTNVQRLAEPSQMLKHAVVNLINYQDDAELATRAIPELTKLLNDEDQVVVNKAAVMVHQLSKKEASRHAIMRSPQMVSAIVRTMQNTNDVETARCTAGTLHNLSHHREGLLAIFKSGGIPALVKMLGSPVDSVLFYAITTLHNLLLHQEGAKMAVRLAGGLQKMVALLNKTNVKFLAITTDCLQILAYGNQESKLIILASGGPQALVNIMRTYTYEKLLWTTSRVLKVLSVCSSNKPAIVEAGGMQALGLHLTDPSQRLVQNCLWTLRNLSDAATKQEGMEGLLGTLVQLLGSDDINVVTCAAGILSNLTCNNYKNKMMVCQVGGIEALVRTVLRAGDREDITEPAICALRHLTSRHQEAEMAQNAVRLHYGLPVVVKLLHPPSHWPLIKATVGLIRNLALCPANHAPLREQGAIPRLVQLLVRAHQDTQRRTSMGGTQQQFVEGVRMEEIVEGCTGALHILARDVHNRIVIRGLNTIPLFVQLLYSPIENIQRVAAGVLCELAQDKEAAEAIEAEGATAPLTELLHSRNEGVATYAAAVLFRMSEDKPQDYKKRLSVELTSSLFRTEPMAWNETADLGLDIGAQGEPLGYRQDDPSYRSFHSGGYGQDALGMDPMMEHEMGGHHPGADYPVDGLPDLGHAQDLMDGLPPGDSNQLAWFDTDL

[7] = molecular target: T1, Catenin beta-1 (Homo sapiens); assay: Inhibition of beta-catenin in human HCT116 cells assessed as reduction in myc mRNA expression; format: cell-based
[8] = system: SW480; assay: Antiproliferative activity against human SW480 cells incubated for 72 hrs by MTT assay; format: functional, cell-based
[9] = system: SW480; assay: Antiproliferative activity against human SW480 cells incubated for 72 hrs by MTT assay relative to control; format: functional
[10] = system: MCF7; assay: Antiproliferative activity against human MCF7 cells up to 20 uM incubated for 72 hrs by MTT assay; format: functional, cell-based
[11] = molecular target: T1, Catenin beta-1 (Homo sapiens); assay: Inhibition of beta-catenin in human SW480 cells assessed as reduction in myc mRNA expression; format: cell-based
[12] = molecular target: T1, Catenin beta-1 (Homo sapiens); assay: Inhibition of beta-catenin in human SW480 cells assessed as reduction in axin2 mRNA expression; format: cell-based
[13] = molecular target: T1, Catenin beta-1 (Homo sapiens); assay: Inhibition of beta-catenin in human SW480 cells assessed as reduction in LGR5 mRNA expression; format: cell-based
[14] = molecular target: T1, Catenin beta-1 (Homo sapiens); assay: Inhibition of beta-catenin in human SW480 cells assessed as reduction in myc protein expression; format: cell-based
[15] = molecular target: T1, Catenin beta-1 (Homo sapiens); assay: Inhibition of beta-catenin in human SW480 cells assessed as reduction in axin2 protein expression; format: cell-based
[16] = molecular target: T1, Catenin beta-1 (Homo sapiens); assay: Inhibition of beta-catenin in human SW480 cells assessed as reduction in LGR5 protein expression; format: cell-based
[17] = molecular target: T1, Catenin beta-1 (Homo sapiens); assay: Inhibition of beta-catenin in human HCT116 cells assessed as reduction in LGR5 mRNA expression; format: cell-based
[18] = molecular target: T1, Catenin beta-1 (Homo sapiens); assay: Inhibition of beta-catenin in human HCT116 cells assessed as reduction in myc protein expression; format: cell-based
[19] = molecular target: T1, Catenin beta-1 (Homo sapiens); assay: Inhibition of beta-catenin in human HCT116 cells assessed as reduction in axin2 protein expression; format: cell-based
[20] = molecular target: T1, Catenin beta-1 (Homo sapiens); assay: Inhibition of beta-catenin in human HCT116 cells assessed as reduction in LGR5 protein expression; format: cell-based
[21] = system: SW480; assay: Induction of apoptosis in human SW480 cells at 25 uM incubated for 48 hrs by Annexin V/propidium iodide-staining based flow cytometric analysis relative to control; format: functional
[22] = system: DLD-1; assay: Induction of apoptosis in human DLD1 cells at 25 uM incubated for 48 hrs by Annexin V/propidium iodide-staining based flow cytometric analysis relative to control; format: functional
[23] = system: SW480; assay: Induction of cell membrane disruption in human SW480 cells up to 50 uM incubated for 4 hrs by LDH assay relative to control; format: functional, cell-based
[24] = molecular target: T2, Catenin beta-1 (Mus musculus, UniProt Q02248); assay: Binding affinity to mouse GST tagged beta catenin (133 to 665 residues) expressed in Escherichia coli BL21 (DE3) cells incubated for 1 hr
T2 sequence (Q02248 whole entry): T1 sequence (whole entry) with P706A

[25] = system: SW480; assay: Antiproliferative activity against human SW480 cells at 20 uM incubated for 72 hrs by MTT assay; format: functional, cell-based

Sequence of E3 ubiquitin-protein ligase Mdm2 (Q00987 whole entry, the tested form may be a part): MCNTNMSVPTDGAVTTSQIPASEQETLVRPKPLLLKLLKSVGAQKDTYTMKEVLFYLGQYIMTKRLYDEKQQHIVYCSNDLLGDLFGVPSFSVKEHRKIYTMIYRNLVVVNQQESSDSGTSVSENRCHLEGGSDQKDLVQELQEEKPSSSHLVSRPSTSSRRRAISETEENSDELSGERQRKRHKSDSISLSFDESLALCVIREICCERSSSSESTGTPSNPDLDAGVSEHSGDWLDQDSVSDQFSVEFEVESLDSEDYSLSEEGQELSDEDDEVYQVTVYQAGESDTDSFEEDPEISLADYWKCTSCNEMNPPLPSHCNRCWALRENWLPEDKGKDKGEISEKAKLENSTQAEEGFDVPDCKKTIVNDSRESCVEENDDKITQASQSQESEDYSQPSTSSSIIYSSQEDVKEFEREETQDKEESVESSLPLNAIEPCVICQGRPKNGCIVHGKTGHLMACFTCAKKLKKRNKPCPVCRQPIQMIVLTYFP

pIC50 [1]: < 4.70
SMILES: CC(=O)N[C@@H](CC(C)C)C(=O)N[C@H](C(=O)N[C@@H](C)C(=O)N[C@H]1CC(=O)NCCCC[C@@H](C(=O)N[C@@H](CCC(N)=O)C(=O)N[C@@H](CC(C)C)C(=O)N[C@H](C(=O)N[C@@H](CO)C(=O)NCCOCCOCC(=O)N[C@@H](CCCCNC(=O)CC[C@@H]2NC(=O)[C@@H](CCCNC(=N)N)NC(=O)[C@H](CCCNC(=N)N)NC(=O)[C@@H](CCCNC(=N)N)NC(=O)[C@H](CCCNC(=N)N)NC(=O)[C@H](Cc3ccc4ccccc4c3)NC(=O)[C@@H](Cc3ccccc3)NC2=O)C(N)=O)[C@@H](C)O)NC(=O)[C@H](Cc2c[nH]c3ccccc23)NC(=O)[C@H](Cc2ccc(O)cc2)NC(=O)[C@H](Cc2cnc[nH]2)NC1=O)[C@@H](C)O
Activity [2]: Toxic
Activity [3]: Toxic
Activity [4]: inactive

SMILES: CC[C@H](C)[C@@H]1NC(=O)[C@@H](NC(=O)[C@H](CCC(=O)O)NC(=O)[C@@H]2CCCN2C(=O)[C@H](Cc2ccc(O)cc2)NC(=O)CNC(=O)CNC(C)=O)CC(=O)NCCCC[C@@H](C(=O)N[C@@H](Cc2cnc[nH]2)C(=O)N[C@@H](CC(C)C)C(=O)N[C@@H](CCC(N)=O)C(=O)N[C@@H](CCCNC(=N)N)C(=O)N[C@H](C(=O)N[C@H](C(=O)N[C@@H](CC(C)C)C(=O)NCCOCCOCC(=O)NCCOCCOCC(=O)N[C@@H](CNC(=O)CC[C@@H]2NC(=O)[C@@H](CCCNC(=N)N)NC(=O)[C@H](CCCNC(=N)N)NC(=O)[C@@H](CCCNC(=N)N)NC(=O)[C@H](CCCNC(=N)N)NC(=O)[C@H](Cc3ccc4ccccc4c3)NC(=O)[C@@H](Cc3ccccc3)NC2=O)C(N)=O)[C@@H](C)CC)C(C)C)NC(=O)[C@H](CC(=O)O)NC(=O)[C@H](CC(C)C)NC1=O (I: Ac-GGYPEDILDKHLQRVIL[AEEA][AEEA][Dap]-NH2 / II: cyclo([2Nal]R[dR]R[dR]E[dF]); lactam I:6-I:10; amide I:20-II:6)
half-life at 100 µM [5]: 120 min
inhibition [6]: Active
inhibition [7]: Active
Activity [8]: Dose-dependent effect
pEC50 ([8]; SW480, 72 h): 5.92
Activity [9]: 60%
Activity [10]: inactive
inhibition [11]: Active
inhibition [12]: Active
inhibition [13]: Active
inhibition [14]: Active
inhibition [15]: Active
inhibition [16]: Active
inhibition [17]: Active
inhibition [18]: Active
inhibition [19]: Active
inhibition [20]: Active
Activity [21]: 10%
Activity [22]: 10%
Activity [23]: inactive

pKd [24]: 7.74
SMILES: CC[C@H](C)[C@@H]1NC(=O)[C@@H](NC(=O)[C@H](CCC(=O)O)NC(=O)[C@@H]2CCCN2C(=O)[C@H](Cc2ccc(O)cc2)NC(=O)CNC(=O)CNC(=O)c2ccc(-c3c4ccc(=O)cc-4oc4cc(O)ccc34)c(C(=O)O)c2)CSCc2cccc(c2)CSC[C@@H](C(=O)N[C@@H](Cc2cnc[nH]2)C(=O)N[C@@H](CC(C)C)C(=O)N[C@@H](CCC(N)=O)C(=O)N[C@@H](CCCNC(=N)N)C(=O)N[C@H](C(=O)N[C@H](C(=O)N[C@@H](CC(C)C)C(N)=O)[C@@H](C)CC)C(C)C)NC(=O)[C@H](CC(=O)O)NC(=O)[C@H](CC(C)C)NC1=O (X1-GGYPECILDCHLQRVIL-NH2; linker 6-10 via mXylylene)
Activity [25]: Active
